Assay results as given in patent publication US20250000843A1, “LIGNAN-INSPIRED COMPOUNDS, METHODS OF MAKING, AND USING THEREOF” (IOWAIBO, INC., priority 2023, published 2025).

Tests used:
[1] = target: telomerase (Homo sapiens, UniProt O14746); experiment: Q-TRAP telomerase activity in MCF7 breast cancer cells; assay type: cell-based; parameters: allow the enzymatic addition of telomeric DNA repeats by endogenous telomerase; endogenous in cells
[2] = test system: PC3, a human prostate cancer cell line; experiment: MTT toxicity assay in PC3 prostate cancer cells; assay type: cell-based
Description: Toxicity of the dibenzyl butyl lactone derivative (3-[(3,4-dimethoxyphenyl)cyclopentyl], 4-[(3-hydroxyphenol)methyl]oxolan-2-one) in breast cancer cells was evaluated using MTT assay. The MTT toxicity test is a colorimetric assay to measure cells' metabolic activity by serving as a substrate of cellular enzymes that reduce the tetrazolium orange dye, MTT (3-(4,5-Dimethylthiazol-2-yl)-2,5-diphenyltetrazolium bromide) to its insoluble, formazan, giving a purple color. The rate of conversion is directly proportional to cells' mitochondrial metabolic activity via NAD (P) H-dependent cellular oxidoreductase enzymes and serves as a surrogate marker of cell viability.
Cells previously expanded were seeded in 96 well plates at 1.9×10^5 and 9.6×10^4 cells/plate for 24- and 72-hours treatment respectively. This concentration is known to show the best window for the MTT assay, with better sensitivity and low variability.
5 mg of powdered enterolactone, dibenzyl butyl lactone derivative enantiomer A, and dibenzyl butyl lactone derivative enantiomer B were dissolved in 500 μl of DMSO at room temperature. Eight-point curves, ⅓ dilutions (highest concentration 125 μM), were prepared.
Twenty-four hours following the seeding process, the cells were washed once with phosphate buffered saline (PBS) and treated with the respective compounds in cell culture media. Each condition was tested in triplicates. For positive and negative controls, 8 mM methyl methane sulfonate (MMS) and DMSO 100% were used respectively.
Following compound addition, the plates were incubated for 24 and 72 hours. After the treatment period, cells were washed twice with PBS and media was replaced with MTT reagent at 0.5 mg/ml in Dulbecco's modified Eagle medium (DMEM) without phenol red. The plates were gently shaken and incubated for 4 hours. After the incubation the medium was removed and replaced by DMSO. The plates were gently shaken to solubilize the formazan crystals. Absorbance was measured using an Envision multiplate reader at a wavelength of 570 nm.
Toxicity of the dibenzyl butyl lactone derivative (3-[(3,4-dimethoxyphenyl)cyclopentyl], 4-[(3-hydroxyphenol)methyl]oxolan-2-one) in prostate cancer cells was evaluated using MTT assay. The same methods as those used in Example 2 were employed, except the cell line used was PC3, a human prostate cancer cell line, and cell cultures were established in Kaighn's modification of Ham's […] medium.
MTT assay results are shown in Tables 16-21 and expressed as the percentage of cell death after treatment.

Chain of telomerase (O14746 whole entry): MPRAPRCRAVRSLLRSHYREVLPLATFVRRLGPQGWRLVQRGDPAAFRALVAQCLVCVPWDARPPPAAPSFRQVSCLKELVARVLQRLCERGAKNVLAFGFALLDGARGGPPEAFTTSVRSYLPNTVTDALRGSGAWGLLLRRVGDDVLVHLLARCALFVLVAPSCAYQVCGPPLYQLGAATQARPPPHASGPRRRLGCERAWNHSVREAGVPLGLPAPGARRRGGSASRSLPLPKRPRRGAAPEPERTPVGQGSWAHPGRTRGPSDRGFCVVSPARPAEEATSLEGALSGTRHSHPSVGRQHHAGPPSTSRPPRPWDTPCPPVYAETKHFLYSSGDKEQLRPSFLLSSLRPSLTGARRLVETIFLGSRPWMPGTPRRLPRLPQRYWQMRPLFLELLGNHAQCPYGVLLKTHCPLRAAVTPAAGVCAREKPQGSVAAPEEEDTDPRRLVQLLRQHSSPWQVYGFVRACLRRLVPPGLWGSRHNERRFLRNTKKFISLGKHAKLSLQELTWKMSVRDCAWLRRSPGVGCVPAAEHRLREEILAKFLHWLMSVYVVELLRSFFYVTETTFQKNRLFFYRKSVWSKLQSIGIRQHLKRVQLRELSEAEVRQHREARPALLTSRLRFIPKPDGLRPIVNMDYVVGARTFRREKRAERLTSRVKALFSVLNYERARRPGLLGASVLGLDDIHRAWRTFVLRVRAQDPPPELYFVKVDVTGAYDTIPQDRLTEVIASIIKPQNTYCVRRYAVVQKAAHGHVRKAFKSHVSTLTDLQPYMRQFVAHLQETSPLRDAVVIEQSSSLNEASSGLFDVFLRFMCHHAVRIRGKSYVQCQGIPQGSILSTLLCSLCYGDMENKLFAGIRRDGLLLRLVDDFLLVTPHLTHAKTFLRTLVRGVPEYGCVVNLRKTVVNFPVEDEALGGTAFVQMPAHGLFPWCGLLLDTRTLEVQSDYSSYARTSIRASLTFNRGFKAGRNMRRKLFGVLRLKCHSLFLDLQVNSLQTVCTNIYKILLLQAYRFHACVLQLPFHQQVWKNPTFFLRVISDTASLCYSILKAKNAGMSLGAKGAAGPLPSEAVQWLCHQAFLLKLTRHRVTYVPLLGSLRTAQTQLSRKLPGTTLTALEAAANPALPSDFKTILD
Chain of telomerase (O60832 whole entry partner): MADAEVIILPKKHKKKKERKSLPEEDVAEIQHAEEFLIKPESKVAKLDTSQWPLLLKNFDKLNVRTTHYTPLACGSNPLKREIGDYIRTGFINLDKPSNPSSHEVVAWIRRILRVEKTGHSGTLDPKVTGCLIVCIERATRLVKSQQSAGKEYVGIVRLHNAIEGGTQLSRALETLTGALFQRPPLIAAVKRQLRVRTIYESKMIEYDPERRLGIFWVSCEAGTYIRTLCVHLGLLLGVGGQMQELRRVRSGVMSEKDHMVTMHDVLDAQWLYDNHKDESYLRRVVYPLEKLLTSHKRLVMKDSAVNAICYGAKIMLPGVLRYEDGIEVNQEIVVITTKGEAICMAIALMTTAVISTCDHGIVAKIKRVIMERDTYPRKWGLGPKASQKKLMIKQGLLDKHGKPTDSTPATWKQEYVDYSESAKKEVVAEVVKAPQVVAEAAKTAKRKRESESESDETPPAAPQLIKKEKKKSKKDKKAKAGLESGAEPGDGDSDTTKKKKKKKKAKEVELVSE
Chain of telomerase (Q9NPE3 whole entry partner): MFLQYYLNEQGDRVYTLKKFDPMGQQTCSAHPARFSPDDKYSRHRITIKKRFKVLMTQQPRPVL
Chain of telomerase (Q9NX24 whole entry partner): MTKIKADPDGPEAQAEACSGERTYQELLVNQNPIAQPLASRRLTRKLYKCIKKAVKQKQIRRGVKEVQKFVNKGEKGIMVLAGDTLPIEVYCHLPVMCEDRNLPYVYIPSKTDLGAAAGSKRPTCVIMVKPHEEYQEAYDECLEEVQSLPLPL
Chain of telomerase (Q9NY12 whole entry partner): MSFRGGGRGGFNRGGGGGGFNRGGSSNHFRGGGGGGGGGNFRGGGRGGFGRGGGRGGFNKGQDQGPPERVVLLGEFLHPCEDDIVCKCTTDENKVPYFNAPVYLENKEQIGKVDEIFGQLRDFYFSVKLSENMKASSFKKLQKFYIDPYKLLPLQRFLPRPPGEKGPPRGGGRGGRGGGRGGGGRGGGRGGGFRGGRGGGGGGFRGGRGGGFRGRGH
Chain of telomerase (Q9BUR4 whole entry partner): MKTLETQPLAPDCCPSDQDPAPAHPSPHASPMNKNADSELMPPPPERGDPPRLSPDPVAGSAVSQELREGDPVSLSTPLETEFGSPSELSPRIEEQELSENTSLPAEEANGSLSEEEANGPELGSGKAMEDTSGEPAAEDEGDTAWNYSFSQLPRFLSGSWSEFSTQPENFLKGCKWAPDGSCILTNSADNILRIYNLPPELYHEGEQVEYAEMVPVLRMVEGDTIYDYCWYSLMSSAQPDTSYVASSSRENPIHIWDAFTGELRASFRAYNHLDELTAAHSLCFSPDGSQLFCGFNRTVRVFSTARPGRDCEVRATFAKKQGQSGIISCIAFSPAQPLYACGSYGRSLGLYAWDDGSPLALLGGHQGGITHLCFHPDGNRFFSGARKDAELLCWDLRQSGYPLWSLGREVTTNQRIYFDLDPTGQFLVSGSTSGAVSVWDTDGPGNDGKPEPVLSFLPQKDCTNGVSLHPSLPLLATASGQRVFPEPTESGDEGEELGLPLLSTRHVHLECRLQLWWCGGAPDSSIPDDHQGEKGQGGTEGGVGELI

With O=C1OCC(Cc2ccc3c(c2)OCO3)/C1=C\c1cccc(O)c1 (single isomer, unassigned) [Enantiomer A, 3-[(3,4-dimethoxyphenyl)cyclopentyl], 4-[(3-hydroxyphenol)methyl]oxolan-2-one] the “Telomerase Activity RTA (%)” value ([1]; MCF7, 2.5 μM, 24 Hours) was 115.47%, the “Telomerase Activity RTA (%)” value ([1]; MCF7, 2.5 μM, 48 Hours) was 49.73% and the “Telomerase Activity RTA (%)” value ([1]; MCF7, 2.5 μM, 72 Hours) was 15.70%. For the same compound, the “Telomerase Activity RTA (%)” value ([1]; MCF7, 5 μM, 24 Hours) was 35.54%, the “Telomerase Activity RTA (%)” value ([1]; MCF7, 5 μM, 48 Hours) was 29.14% and the “Telomerase Activity RTA (%)” value ([1]; MCF7, 5 μM, 72 Hours) was 14.77%. The “Telomerase Activity RTA (%)” value ([1]; MCF7, 10 μM, 24 Hours) was 40.24%, the “Telomerase Activity RTA (%)” value ([1]; MCF7, 10 μM, 48 Hours) was 28.47% and the “Telomerase Activity RTA (%)” value ([1]; MCF7, 10 μM, 72 Hours) was 15.87%. For the same compound, the “Telomerase Activity RTA (%)” value ([1]; MCF7, 20 μM, 24 Hours) was 25.50%, the “Telomerase Activity RTA (%)” value ([1]; MCF7, 20 μM, 48 Hours) was 41.20% and the “Telomerase Activity RTA (%)” value ([1]; MCF7, 20 μM, 72 Hours) was 5.82%. For the same compound, the “Telomerase Activity RTA (%)” value ([1]; MCF7, 40 μM, 24 Hours) was 62.53%, the “Telomerase Activity RTA (%)” value ([1]; MCF7, 40 μM, 48 Hours) was 36.82% and the “Telomerase Activity RTA (%)” value ([1]; MCF7, 40 μM, 72 Hours) was 0.86%. For the same compound, the IC50 ([1]; MCF7, 24 h) was ~2.49 µM, the “telomerase activity levels of treated groups compared to control” value ([1]; MCF7, 24 hours) was “lower telomerase activity levels compared to control” and the “Significance of RTA difference vs. control” value ([1]; MCF7, 24 hours, 5 μM) was “YES (*)”. The “Significance of RTA difference vs. control” value ([1]; MCF7, 24 hours, 10 μM) was “YES (*)”, the “Significance of RTA difference vs. control” value ([1]; MCF7, 24 hours, 20 μM) was “YES (*)” and the “Significance of RTA difference vs. control” value ([1]; MCF7, 24 hours, 40 μM) was “YES (*)”. For the same compound, the IC50 ([1]; MCF7, 48 h) was 2.23 µM, the “telomerase activity levels of treated groups compared to control” value ([1]; MCF7, 48 hours) was “lower telomerase activity levels compared to control” and the “Significance of RTA difference vs. control” value ([1]; MCF7, 48 hours, 5 μM) was “YES (*)”. The “Significance of RTA difference vs. control” value ([1]; MCF7, 48 hours, 10 μM) was “YES (**)”, the “Significance of RTA difference vs. control” value ([1]; MCF7, 48 hours, 40 μM) was “YES (*)” and the IC50 ([1]; MCF7, 72 h) was 19.8 µM. For the same compound, the “telomerase activity levels of treated groups compared to control” value ([1]; MCF7, 72 hours) was “groups treated with the two highest concentrations presented further lower RTA levels”, the “Significance of RTA difference vs. control” value ([1]; MCF7, 72 hours, 40 μM) was “YES (**)” and the telomerase inhibition effect ([1]; MCF7 breast cancer cells) was “exhibit a telomerase inhibition effect”. For the same compound, the “Cell death #1 (%)” value ([2]; PC3, 24 hours, 0.06 μM) was −10.92%, the “Cell death #2 (%)” value ([2]; PC3, 24 hours, 0.06 μM) was −13.82% and the “Cell death #3 (%)” value ([2]; PC3, 24 hours, 0.06 μM) was −11.02%. The “Cell death (%) MEAN” value ([2]; PC3, 24 hours, 0.06 μM) was −11.92%, the “Cell death #1 (%)” value ([2]; PC3, 24 hours, 0.17 μM) was −27.17% and the “Cell death #2 (%)” value ([2]; PC3, 24 hours, 0.17 μM) was −17.50%. The “Cell death #3 (%)” value ([2]; PC3, 24 hours, 0.17 μM) was −8.79%, the “Cell death (%) MEAN” value ([2]; PC3, 24 hours, 0.17 μM) was −17.82% and the “Cell death #1 (%)” value ([2]; PC3, 24 hours, 0.51 μM) was −2.70%. For the same compound, the “Cell death #2 (%)” value ([2]; PC3, 24 hours, 0.51 μM) was −15.18%, the “Cell death #3 (%)” value ([2]; PC3, 24 hours, 0.51 μM) was −10.44% and the “Cell death (%) MEAN” value ([2]; PC3, 24 hours, 0.51 μM) was −9.44%. For the same compound, the “Cell death #1 (%)” value ([2]; PC3, 24 hours, 1.54 μM) was −29.20%, the “Cell death #2 (%)” value ([2]; PC3, 24 hours, 1.54 μM) was −24.37% and the “Cell death #3 (%)” value ([2]; PC3, 24 hours, 1.54 μM) was −23.78%. The “Cell death (%) MEAN” value ([2]; PC3, 24 hours, 1.54 μM) was −25.78%, the “Cell death #1 (%)” value ([2]; PC3, 24 hours, 4.63 μM) was −17.98% and the “Cell death #2 (%)” value ([2]; PC3, 24 hours, 4.63 μM) was −21.37%. The “Cell death #3 (%)” value ([2]; PC3, 24 hours, 4.63 μM) was −15.27%, the “Cell death (%) MEAN” value ([2]; PC3, 24 hours, 4.63 μM) was −18.21% and the “Cell death #1 (%)” value ([2]; PC3, 24 hours, 13.89 μM) was −26.49%. For the same compound, the “Cell death #2 (%)” value ([2]; PC3, 24 hours, 13.89 μM) was −20.40%, the “Cell death #3 (%)” value ([2]; PC3, 24 hours, 13.89 μM) was −18.56% and the “Cell death (%) MEAN” value ([2]; PC3, 24 hours, 13.89 μM) was −21.82%. For the same compound, the “Cell death #1 (%)” value ([2]; PC3, 24 hours, 41.67 μM) was −6.18%, the “Cell death #2 (%)” value ([2]; PC3, 24 hours, 41.67 μM) was −0.76% and the “Cell death #3 (%)” value ([2]; PC3, 24 hours, 41.67 μM) was −12.85%. For the same compound, the “Cell death (%) MEAN” value ([2]; PC3, 24 hours, 41.67 μM) was −6.60%, the “Cell death #1 (%)” value ([2]; PC3, 24 hours, 125.00 μM) was 32.42% and the “Cell death #2 (%)” value ([2]; PC3, 24 hours, 125.00 μM) was 28.74%. The “Cell death #3 (%)” value ([2]; PC3, 24 hours, 125.00 μM) was 33.00%, the “Cell death (%) MEAN” value ([2]; PC3, 24 hours, 125.00 μM) was 31.39% and the “Cell death #1 (%)” value ([2]; PC3, 72 hours, 0.06 μM) was −39.43%. The “Cell death #2 (%)” value ([2]; PC3, 72 hours, 0.06 μM) was −40.43%, the “Cell death #3 (%)” value ([2]; PC3, 72 hours, 0.06 μM) was −33.95% and the “Cell death (%) MEAN” value ([2]; PC3, 72 hours, 0.06 μM) was −37.94%. The “Cell death #1 (%)” value ([2]; PC3, 72 hours, 0.17 μM) was −43.42%, the “Cell death #2 (%)” value ([2]; PC3, 72 hours, 0.17 μM) was −40.55% and the “Cell death #3 (%)” value ([2]; PC3, 72 hours, 0.17 μM) was −38.31%. The “Cell death (%) MEAN” value ([2]; PC3, 72 hours, 0.17 μM) was −40.76%, the “Cell death #1 (%)” value ([2]; PC3, 72 hours, 0.51 μM) was −63.73% and the “Cell death #2 (%)” value ([2]; PC3, 72 hours, 0.51 μM) was −69.58%. For the same compound, the “Cell death #3 (%)” value ([2]; PC3, 72 hours, 0.51 μM) was −63.23%, the “Cell death (%) MEAN” value ([2]; PC3, 72 hours, 0.51 μM) was −65.51% and the “Cell death #1 (%)” value ([2]; PC3, 72 hours, 1.54 μM) was −46.91%. The “Cell death #2 (%)” value ([2]; PC3, 72 hours, 1.54 μM) was −52.39%, the “Cell death #3 (%)” value ([2]; PC3, 72 hours, 1.54 μM) was −53.51% and the “Cell death (%) MEAN” value ([2]; PC3, 72 hours, 1.54 μM) was −50.94%. For the same compound, the “Cell death #1 (%)” value ([2]; PC3, 72 hours, 4.63 μM) was −76.31%, the “Cell death #2 (%)” value ([2]; PC3, 72 hours, 4.63 μM) was −66.59% and the “Cell death #3 (%)” value ([2]; PC3, 72 hours, 4.63 μM) was −54.63%. For the same compound, the “Cell death (%) MEAN” value ([2]; PC3, 72 hours, 4.63 μM) was −65.85%, the “Cell death #1 (%)” value ([2]; PC3, 72 hours, 13.89 μM) was −45.54% and the “Cell death #2 (%)” value ([2]; PC3, 72 hours, 13.89 μM) was −47.91%. For the same compound, the “Cell death #3 (%)” value ([2]; PC3, 72 hours, 13.89 μM) was −30.21%, the “Cell death (%) MEAN” value ([2]; PC3, 72 hours, 13.89 μM) was −41.22% and the “Cell death #1 (%)” value ([2]; PC3, 72 hours, 41.67 μM) was 9.78%. For the same compound, the “Cell death #2 (%)” value ([2]; PC3, 72 hours, 41.67 μM) was 23.24%, the “Cell death #3 (%)” value ([2]; PC3, 72 hours, 41.67 μM) was 14.02% and the “Cell death (%) MEAN” value ([2]; PC3, 72 hours, 41.67 μM) was 15.68%. For the same compound, the “Cell death #1 (%)” value ([2]; PC3, 72 hours, 125.00 μM) was 75.56%, the “Cell death #2 (%)” value ([2]; PC3, 72 hours, 125.00 μM) was 74.94% and the “Cell death #3 (%)” value ([2]; PC3, 72 hours, 125.00 μM) was 74.82%. The “Cell death (%) MEAN” value ([2]; PC3, 72 hours, 125.00 μM) was 75.11% and the “prostate cancer cell death as compared to enterolactone” value ([2]; PC3, at higher concentrations, 24 hours and 72 hours post-treatment) was “increased prostate cancer cell death as compared to enterolactone”.
